Assay: xn = mol fraction of the nth substance listed
Details: for mass density: 101 kPa, Liquid

CCCCCCCCO [octan-1-ol] + CCCCCCC
Details	mass density [kg/m3]	surface tension liquid-gas [mN/m]
288.15 K, x2 = 0.0514	822.18	–
288.15 K, x2 = 0.0516	–	26.75
288.15 K, x2 = 0.0995	–	26.18
288.15 K, x2 = 0.1001	816.02	–
288.15 K, x2 = 0.1845	–	25.05
288.15 K, x2 = 0.2015	802.93	–
288.15 K, x2 = 0.3082	788.6	–
288.15 K, x2 = 0.3346	–	23.74
288.15 K, x2 = 0.4054	775.17	–
288.15 K, x2 = 0.4142	–	23.12
288.15 K, x2 = 0.5034	–	22.6
288.15 K, x2 = 0.517	759.5	–
288.15 K, x2 = 0.6074	–	22.16
288.15 K, x2 = 0.6305	743.28	–
288.15 K, x2 = 0.6639	–	21.9
288.15 K, x2 = 0.7114	731.48	–
288.15 K, x2 = 0.8136	716.21	–
288.15 K, x2 = 0.8325	–	21.24
288.15 K, x2 = 0.9061	702.2	–
288.15 K, x2 = 0.9105	–	20.94
288.15 K, x2 = 0.9518	695.28	–
288.15 K, x2 = 0.9561	–	20.87
293.15 K, x2 = 0.0514	818.71	–
293.15 K, x2 = 0.0564	–	26.14
293.15 K, x2 = 0.1001	812.51	–
293.15 K, x2 = 0.1057	–	25.54
293.15 K, x2 = 0.2015	799.33	–
293.15 K, x2 = 0.2084	–	24.34
293.15 K, x2 = 0.3082	784.92	–
293.15 K, x2 = 0.3112	–	23.38
293.15 K, x2 = 0.4054	771.41	–
293.15 K, x2 = 0.4066	–	22.59
293.15 K, x2 = 0.5114	–	21.96
293.15 K, x2 = 0.517	755.65	–
293.15 K, x2 = 0.6092	–	21.52
293.15 K, x2 = 0.6305	739.34	–
293.15 K, x2 = 0.7114	727.47	–
293.15 K, x2 = 0.7164	–	20.99
293.15 K, x2 = 0.8124	–	20.62
293.15 K, x2 = 0.8136	712.11	–
293.15 K, x2 = 0.8965	–	20.48
293.15 K, x2 = 0.9061	698.04	–
293.15 K, x2 = 0.9518	691.08	–
293.15 K, x2 = 0.9573	–	20.26
298.15 K, x2 = 0.0514	815.21	–
298.15 K, x2 = 0.0541	–	25.64
298.15 K, x2 = 0.1001	808.98	–
298.15 K, x2 = 0.1083	–	25.03
298.15 K, x2 = 0.2004	–	23.91
298.15 K, x2 = 0.2015	795.72	–
298.15 K, x2 = 0.3082	781.22	–
298.15 K, x2 = 0.3137	–	22.82
298.15 K, x2 = 0.405	–	22.09
298.15 K, x2 = 0.4054	767.63	–
298.15 K, x2 = 0.5089	–	21.44
298.15 K, x2 = 0.517	751.77	–
298.15 K, x2 = 0.6085	–	20.94
298.15 K, x2 = 0.6305	735.37	–
298.15 K, x2 = 0.7107	–	20.46
298.15 K, x2 = 0.7114	723.44	–
298.15 K, x2 = 0.8072	–	20.15
298.15 K, x2 = 0.8136	707.99	–
298.15 K, x2 = 0.9061	693.84	–
298.15 K, x2 = 0.9071	–	19.82
298.15 K, x2 = 0.9518	686.85	–
298.15 K, x2 = 0.9536	–	19.64
303.15 K, x2 = 0.0504	–	25.18
303.15 K, x2 = 0.0514	811.7	–
303.15 K, x2 = 0.1001	805.43	–
303.15 K, x2 = 0.1033	–	24.57
303.15 K, x2 = 0.2015	792.09	–
303.15 K, x2 = 0.2052	–	23.46
303.15 K, x2 = 0.3082	777.49	–
303.15 K, x2 = 0.3108	–	22.37
303.15 K, x2 = 0.4054	763.85	–
303.15 K, x2 = 0.4134	–	21.56
303.15 K, x2 = 0.5153	–	20.94
303.15 K, x2 = 0.517	747.87	–
303.15 K, x2 = 0.6005	–	20.46
303.15 K, x2 = 0.6305	731.38	–
303.15 K, x2 = 0.7067	–	19.98
303.15 K, x2 = 0.7114	719.37	–
303.15 K, x2 = 0.8043	–	19.58
303.15 K, x2 = 0.8136	703.84	–
303.15 K, x2 = 0.9047	–	19.22
303.15 K, x2 = 0.9061	689.61	–
303.15 K, x2 = 0.9486	–	19.14
303.15 K, x2 = 0.9518	682.59	–
308.15 K, x2 = 0.0514	808.16	–
308.15 K, x2 = 0.0562	–	24.54
308.15 K, x2 = 0.1001	801.85	–
308.15 K, x2 = 0.1017	–	24.05
308.15 K, x2 = 0.2015	788.43	–
308.15 K, x2 = 0.2078	–	22.86
308.15 K, x2 = 0.3065	–	21.92
308.15 K, x2 = 0.3082	773.75	–
308.15 K, x2 = 0.4054	760.1	–
308.15 K, x2 = 0.4117	–	21.11
308.15 K, x2 = 0.5064	–	20.53
308.15 K, x2 = 0.517	743.94	–
308.15 K, x2 = 0.6065	–	20
308.15 K, x2 = 0.6305	727.36	–
308.15 K, x2 = 0.7081	–	19.61
308.15 K, x2 = 0.7114	715.28	–
308.15 K, x2 = 0.8	–	19.27
308.15 K, x2 = 0.8136	699.65	–
308.15 K, x2 = 0.9028	–	18.88
308.15 K, x2 = 0.9061	685.35	–
308.15 K, x2 = 0.9483	–	18.82
308.15 K, x2 = 0.9518	678.3	–

From the NIST ThermoML archive (doi:10.1021/je060179e)
